According to US12655116B2, “Substituted isophthalic acid diamides” (Bayer Aktiengesellschaft, priority 2020, dated 2026):

Experiments:
[1] = system: ECHCG; test: Post-emergence herbicidal action against ECHCG; assay type: in vivo, Echinochloa crus-galli
Procedure, shortened: (§1)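 Post-emergence greenhouse test; one-leaf stage, 2–3 wk post-sowing, sandy loam. Foliar spray of WP/EC in water, 600–800 l/ha, +0.2% wetting agent. Visual % action at ~3 wk vs untreated (100% = plants dead).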

[2] = system: VIOTR; test: Post-emergence herbicidal action against VIOTR; assay type: in vivo, Viola tricolor
Procedure, shortened: as §1

[3] = system: VIOTR; test: Pre-emergence herbicidal action against VIOTR; assay type: in vivo, Viola tricolor
Procedure, shortened: (§2)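 Herbicidal effect was assessed 3 weeks after treatment by visual comparison with untreated controls, 100% denoting dead plants. Aqueous WP or EC preparations had been applied at 600 to 800 l/ha with 0.2% wetting agent to the soil covering freshly sown seeds.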

[4] = system: STEME; test: Post-emergence herbicidal action against STEME; assay type: in vivo, Stellaria media
Procedure, shortened: as §1

[5] = system: MATIN; test: Pre-emergence herbicidal action against MATIN; assay type: in vivo, Matricaria inodora
Procedure, shortened: as §2

[6] = system: AVEFA; test: Post-emergence herbicidal action against AVEFA; assay type: in vivo, Avena fatua; conditions: visual assessment about 3 weeks after treatment, 100% = plants have died, 0% = like control plants
Procedure, shortened: as §1

[7] = system: PHBPU; test: Post-emergence herbicidal action against PHBPU; assay type: in vivo, Pharbitis purpurea
Procedure, shortened: as §1

[8] = system: ALOMY; test: Post-emergence herbicidal action against ALOMY; assay type: in vivo, Alopecurus myosuroides; conditions: dosage 20 g/ha, visual assessment about 3 weeks after treatment vs untreated controls
Procedure, shortened: as §1

[9] = system: HORMU; test: Pre-emergence herbicidal action against HORMU; assay type: in vivo, Hordeum murinum; conditions: 80 g/ha, pre-emergence
Procedure, shortened: as §2

[10] = system: ABUTH; test: Post-emergence herbicidal action against ABUTH; assay type: in vivo, Abutilon theophrasti; conditions: visual assessment about 3 weeks after treatment vs untreated controls
Procedure, shortened: as §1

[11] = system: POLCO; test: Pre-emergence herbicidal action against POLCO; assay type: in vivo, Polygonum convolvulus; conditions: dosage 80 g/ha
Procedure, shortened: as §2

[12] = system: SETVI; test: Post-emergence herbicidal action against SETVI; assay type: in vivo, Setaria viridis
Procedure, shortened: as §1

[13] = system: DIGSA; test: Post-emergence herbicidal action against DIGSA; assay type: in vivo, Digitaria sanguinalis
Procedure, shortened: as §1

[14] = system: MATIN; test: Post-emergence herbicidal action against MATIN; assay type: in vivo, Matricaria inodora
Procedure, shortened: as §1

[15] = system: AMARE; test: Pre-emergence herbicidal action against AMARE; assay type: in vivo, Amaranthus retroflexus
Procedure, shortened: as §2

[16] = system: STEME; test: Pre-emergence herbicidal action against STEME; assay type: in vivo, Stellaria media
Procedure, shortened: as §2

[17] = system: ABUTH; test: Pre-emergence herbicidal action against ABUTH; assay type: in vivo, Abutilon theophrasti
Procedure, shortened: as §2

[18] = system: ECHCG; test: Pre-emergence herbicidal action against ECHCG; assay type: in vivo, Echinochloa crus-galli
Procedure, shortened: as §2

[19] = system: HORMU; test: Post-emergence herbicidal action against HORMU; assay type: in vivo, Hordeum murinum; conditions: dosage 20 g/ha
Procedure, shortened: as §1

[20] = system: LOLRI; test: Pre-emergence herbicidal action against LOLRI; assay type: in vivo, Lolium rigidum; conditions: 80 g/ha
Procedure, shortened: as §2

[21] = system: ALOMY; test: Pre-emergence herbicidal action against ALOMY; assay type: in vivo, Alopecurus myosuroides; conditions: pre-emergence
Procedure, shortened: as §2

[22] = system: SETVI; test: Pre-emergence herbicidal action against SETVI; assay type: in vivo, Setaria viridis
Procedure, shortened: as §2

[23] = system: VERPE; test: Post-emergence herbicidal action against VERPE; assay type: in vivo, Veronica persica; conditions: 20 g/ha
Procedure, shortened: as §1

[24] = system: DIGSA; test: Pre-emergence herbicidal action against DIGSA; assay type: in vivo, Digitaria sanguinalis
Procedure, shortened: as §2

[25] = system: AVEFA; test: Pre-emergence herbicidal action against AVEFA; assay type: in vivo, Avena fatua; conditions: pre-emergence
Procedure, shortened: as §2

[26] = system: AMARE; test: Post-emergence herbicidal action against AMARE; assay type: in vivo, Amaranthus retroflexus; conditions: 20 g/ha, visual assessment about 3 weeks after treatment, 100% = plants have died, 0% = like control plants
Procedure, shortened: as §1

[27] = system: PHBPU; test: Pre-emergence herbicidal action against PHBPU; assay type: in vivo, Pharbitis purpurea; conditions: dosage 80 g/ha
Procedure, shortened: as §2

[28] = Tripleurospermum inodorum, 504 h, dosage 20 g/ha
[29] = Setaria viridis, 504 h, dosage 20 g/ha
[30] = 80 g/ha, scored visually after 3 weeks vs untreated controls (100% = plants have died, 0% = like control plants)

## Cn1nnnc1NC(=O)c1ccc(C(F)(F)F)c(C(=O)NC2CC2)c1Cl [Example 1-131]
[1]; Echinochloa crus-galli, 504 h, dosage 20 g/ha
  pest or weed control at 20 g/ha: 90%
[2]; Viola tricolor, 504 h, 5 g/ha
  pest or weed control at 5 g/ha: 100%
[2]; Viola tricolor, 504 h, 20 g/ha
  pest or weed control at 20 g/ha: 100%
[3]; Viola tricolor, 504 h, dosage 20 g/ha
  pest or weed control at 20 g/ha: 100%
[3]; Viola tricolor, 504 h, dosage 80 g/ha
  pest or weed control at 80 g/ha: 100%
[4]; Stellaria media, 504 h, 20 g/ha
  pest or weed control at 20 g/ha: 100%
[4]; Stellaria media, 504 h, dosage 5 g/ha
  pest or weed control at 5 g/ha: 80%
[5]; [28]
  pest or weed control at 20 g/ha: 100%
[5]; Tripleurospermum inodorum, 504 h, dosage 80 g/ha
  pest or weed control at 80 g/ha: 100%
[6]; Avena fatua, 504 h, 20 g/ha
  pest or weed control at 20 g/ha: 80%
[7]; Ipomoea purpurea, 504 h, dosage 20 g/ha
  pest or weed control at 20 g/ha: 90%
[8]; Alopecurus myosuroides, 504 h
  pest or weed control at 20 g/ha: 90%
[9]; Hordeum murinum, 504 h
  pest or weed control at 80 g/ha: 80%
[10]; Abutilon theophrasti, 504 h, dosage 5 g/ha
  pest or weed control at 5 g/ha: 90%
[10]; Abutilon theophrasti, 504 h, dosage 20 g/ha
  pest or weed control at 20 g/ha: 90%
[11]; Fallopia convolvulus, 504 h
  pest or weed control at 80 g/ha: 80%
[12]; [29]
  pest or weed control at 20 g/ha: 100%
[13]; Digitaria sanguinalis, 504 h, 5 g/ha
  pest or weed control at 5 g/ha: 100%
[13]; Digitaria sanguinalis, 504 h, 20 g/ha
  pest or weed control at 20 g/ha: 100%
[14]; Tripleurospermum inodorum, 504 h, dosage 5 g/ha
  pest or weed control at 5 g/ha: 90%
[14]; [28]
  pest or weed control at 20 g/ha: 90%
[15]; Amaranthus retroflexus, 504 h, 20 g/ha, scored visually after 3 weeks vs untreated controls, 100% = plants have died, 0% = like control plants
  pest or weed control at 20 g/ha: 100%
[15]; Amaranthus retroflexus, 504 h, 80 g/ha, scored visually after 3 weeks vs untreated controls, 100% = plants have died, 0% = like control plants
  pest or weed control at 80 g/ha: 100%
[16]; Stellaria media, 504 h, dosage 20 g/ha
  pest or weed control at 20 g/ha: 100%
[16]; Stellaria media, 504 h, dosage 80 g/ha
  pest or weed control at 80 g/ha: 100%
[17]; Abutilon theophrasti, 504 h, 80 g/ha, scored visually after 3 weeks vs untreated controls (100% = plants have died, 0% = like control plants)
  pest or weed control at 80 g/ha: 100%
[17]; Abutilon theophrasti, 504 h, dosage 20 g/ha, scored visually after 3 weeks vs untreated controls, 100% = plants have died, 0% = like control plants, read-out: Pre-emergence action against ABUTH (herbicidal activity in percent)
  pest or weed control at 20 g/ha: 100%
[18]; Echinochloa crus-galli, 504 h, 80 g/ha
  pest or weed control at 80 g/ha: 100%
[19]; Hordeum murinum, 504 h
  pest or weed control at 20 g/ha: 80%
[20]; Lolium rigidum, 504 h
  pest or weed control at 80 g/ha: 80%
[21]; Alopecurus myosuroides, 504 h, 80 g/ha, scored visually after 3 weeks vs untreated controls (100% = plants have died, 0% = like control plants)
  pest or weed control at 80 g/ha: 100%
[21]; Alopecurus myosuroides, 504 h, 20 g/ha, scored visually after 3 weeks, 100% = plants have died, 0% = like control plants
  pest or weed control at 20 g/ha: 80%
[22]; [29]
  pest or weed control at 20 g/ha: 80%
[22]; Setaria viridis, 504 h, dosage 80 g/ha
  pest or weed control at 80 g/ha: 100%
[23]; Veronica persica, 504 h
  pest or weed control at 20 g/ha: 90%
[24]; Digitaria sanguinalis, 504 h, dosage 20 g/ha
  pest or weed control at 20 g/ha: 100%
[24]; Digitaria sanguinalis, 504 h, dosage 80 g/ha
  pest or weed control at 80 g/ha: 100%
[25]; Avena fatua, 504 h, 80 g/ha
  pest or weed control at 80 g/ha: 100%
[25]; Avena fatua, 504 h, 20 g/ha, scored visually after 3 weeks, 100% = plants have died, 0% = like control plants
  pest or weed control at 20 g/ha: 80%
[26]; Amaranthus retroflexus, 504 h
  pest or weed control at 20 g/ha: 100%

## CCNC(=O)c1c(C(F)(F)F)ccc(C(=O)Nc2nnco2)c1Cl [Example 5-117]
[1]; dosage 5 g/ha
  Post-emergence action against ECHCG in %: 80%
[1]; dosage 20 g/ha
  Post-emergence action against ECHCG in %: 80%
[2]; 5 g/ha
  Post-emergence action against VIOTR in %: 90%
[2]; 20 g/ha
  Post-emergence action against VIOTR in %: 100%
[3]; dosage 20 g/ha
  Pre-emergence action against VIOTR in %: 100%
[3]; dosage 80 g/ha
  Pre-emergence action against VIOTR in %: 100%
[4]; 20 g/ha
  Post-emergence action against STEME in %: 100%
[4]; dosage 5 g/ha
  Post-emergence action against STEME in %: 100%
[5]; dosage 20 g/ha
  Pre-emergence action against MATIN in %: 90%
[5]; dosage 80 g/ha
  Pre-emergence action against MATIN in %: 100%
[6]; 5 g/ha
  Post-emergence action at 5 g/ha against AVEFA in %: 80%
[6]; 20 g/ha
  Post-emergence action at 20 g/ha against AVEFA in %: 90%
[7]; dosage 5 g/ha
  Post-emergence action against PHBPU in %: 80%
[7]; dosage 20 g/ha
  Post-emergence action against PHBPU in %: 90%
[8]
  Post-emergence action against ALOMY in %: 80%
[27]
  Pre-emergence action against PHBPU in %: 100%
[9]
  Pre-emergence action against HORMU in %: 80%
[10]; dosage 5 g/ha
  Post-emergence action against ABUTH in %: 80%
[10]; dosage 20 g/ha
  Post-emergence action against ABUTH in %: 90%
[11]
  Pre-emergence action against POLCO in %: 80%
[12]; dosage 5 g/ha
  Post-emergence action against SETVI in %: 100%
[12]; dosage 20 g/ha
  Post-emergence action against SETVI in %: 100%
[13]; 5 g/ha
  Post-emergence action against DIGSA in %: 90%
[13]; 20 g/ha
  Post-emergence action against DIGSA: 90%
[14]; dosage 5 g/ha
  Post-emergence action against MATIN in %: 80%
[14]; dosage 20 g/ha
  Post-emergence action against MATIN in %: 90%
[15]; 20 g/ha, scored visually after 3 weeks vs untreated controls, 100% = plants have died, 0% = like control plants
  Pre-emergence action against AMARE in %: 90%
[15]; [30]
  Pre-emergence action against AMARE in %: 90%
[16]; dosage 20 g/ha
  Pre-emergence action against STEME in %: 90%
[16]; dosage 80 g/ha
  Pre-emergence action against STEME in %: 90%
[17]; [30]
  Pre-emergence action against ABUTH (herbicidal activity): 100%
[17]; dosage 20 g/ha, scored visually after 3 weeks vs untreated controls, 100% = plants have died, 0% = like control plants
  Pre-emergence action against ABUTH (herbicidal activity in percent): 100%
[18]; 20 g/ha
  Pre-emergence action against ECHCG in %: 80%
[18]; 80 g/ha
  Pre-emergence action against ECHCG in %: 100%
[19]
  Post-emergence action against HORMU in %: 80%
[20]
  Pre-emergence action against LOLRI in %: 80%
[21]; [30]
  Pre-emergence action against ALOMY (herbicidal activity): 90%
[22]; dosage 80 g/ha
  Pre-emergence action against SETVI in %: 90%
[23]
  Post-emergence action against VERPE in %: 80%
[24]; dosage 20 g/ha
  Pre-emergence action against DIGSA in %: 100%
[24]; dosage 80 g/ha
  Pre-emergence action against DIGSA in %: 100%
[25]; 80 g/ha
  Pre-emergence action against AVEFA in %: 90%
[26]
  Post-emergence action at 20 g/ha against AMARE in %: 100%
